Test results from patent US5239058A, “Proteins having anticoagulant properties” (Merck & Co., Inc., priority 1992, dated 1993).

Columns and labels:
S. aureus V8 protease = S. aureus V8 protease (Staphylococcus aureus, UniProt P0C1U8); settings: 300-fold molar excess of TAP-1 over protease
Description: (§1) Ornithodoros moubata ticks were obtained from South Africa through Antibody Associates, Inc. (Bedford, Tex.). Colorimetric substrates were purchased from Helena Labs, American Diagnostica, and Chemical Dynamics. Human Factor Xa was from Enzyme Research Laboratories. Human plasmin, urokinase, and bovine thrombin were from Calbiochem; bovine trypsin, chymotrypsin, and pancreatic elastase were from Worthington Enzymes, Inc. Plasma kallikrein, carboxypeptidase Y, S. aureus V8 protease and protease inhibitors were from Sigma. Two chain tPA was from American Diagnostica.
(§2) Assays were carried out at room temperature in 96-well microtiter plates. […] The concentration of Factor Xa was determined by active site titration. The concentrations of working solutions of the other proteases were determined spectrophotometrically using published extinction coefficients. The concentration of purified inhibitor was determined by quantitative amino acid analysis. […]
(§3) Because the TAP-1 was pre-incubated with the human Factor Xa to establish equilibrium in the absence of substrate, a value for the intrinsic Ki irrespective of the mechanism was calculated (solid line) using the equation for tight binding inhibition described in the article by Morrison, J. F. in Biochem. Biophys. […]

human Factor Xa = target: T1, human Factor Xa (Homo sapiens, UniProt P00742); assay: Factor Xa chromogenic enzyme assay (Spectrozyme Xa); type: biochemical; settings: for Ki: inhibitor pre-incubated with human Factor Xa, tight binding equation, read-out: Ki for inhibition of Factor Xa
T1 construct: purchased Enzyme Research Laboratories
T1 sequence (P00742 235-488 limits assumed): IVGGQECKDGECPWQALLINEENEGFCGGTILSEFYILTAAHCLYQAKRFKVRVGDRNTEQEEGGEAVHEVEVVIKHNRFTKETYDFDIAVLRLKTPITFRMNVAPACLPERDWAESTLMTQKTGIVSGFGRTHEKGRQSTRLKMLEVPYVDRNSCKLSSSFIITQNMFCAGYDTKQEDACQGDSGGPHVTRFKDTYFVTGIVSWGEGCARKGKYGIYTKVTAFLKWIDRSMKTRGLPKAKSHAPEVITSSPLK
T1 sequence (P00742 41-179 partner limits assumed): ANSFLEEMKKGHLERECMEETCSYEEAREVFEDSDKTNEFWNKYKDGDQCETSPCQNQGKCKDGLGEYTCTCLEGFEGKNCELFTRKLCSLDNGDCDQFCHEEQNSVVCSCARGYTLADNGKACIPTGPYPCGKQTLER
Description: (§4) Assays were carried out at room temperature in 96-well microtiter plates. The color developed from the hydrolysis of peptide-nitroanilide substrates was monitored continuously at 405 nM on a Vmax machine (Molecular Devices). The concentration of Factor Xa was determined by active site titration. The concentrations of working solutions of the other proteases were determined spectrophotometrically using published extinction coefficients. The concentration of purified inhibitor was determined by quantitative amino acid analysis. […] In the case of human Factor Xa, the buffers also included 0.1% BSA; for S. aureus V8 protease the buffer was 50 mM NH4 HCo3. The substrates used were: Spectrozyme Xa (Factor Xa), S-2238 (thrombin), S-2356 (chymotrypsin), S-2366 (Factor XIa) Boc-AlaAla-Pro-Ala-pNA (elastase), Spectrozyme Pkal (kallikrein), Spectrozyme PL (plasmin), Spectrozyme UK (urokinase) Z-Phe-Leu-Glu-pNA (S. aureus V8 protease) and Spectrozyme tPA for tPA. Factor VIIa was assayed by measuring the release of the ^3 H-activation peptide from human Factor X. For kinetic analyses, assays were carried for up to 10 min. followed by estimation of the initial rate where less than 5% of the added substrate was utilized.
Because the TAP-1 was pre-incubated with the human Factor Xa to establish equilibrium in the absence of substrate, a value for the intrinsic Ki irrespective of the mechanism was calculated (solid line) using the equation for tight binding inhibition described in the article by Morrison, J. F. in Biochem. Biophys. Acta 185,269 (1969). The effect on TAP-1 on various proteases also was tested.

thrombin = target: T2, thrombin (Bos taurus, UniProt P00735); assay: thrombin chromogenic enzyme assay (S-2238); type: biochemical, bovine; settings: 300-fold molar excess of TAP-1 over protease
T2 construct: responsible for the Factor Xa conversion of prothrombin to thrombin in vivo; purchased Calbiochem
Description: as §1, §2, §3

urokinase = target: T3, urokinase (Homo sapiens, UniProt P00749); assay: urokinase chromogenic enzyme assay (Spectrozyme UK); type: biochemical; settings: 300-fold molar excess of TAP-1 over protease
T3 construct: purchased Calbiochem
Description: as §1, §2, §3

chymotrypsin = target: T4, chymotrypsin (Bos taurus, UniProt P00766); assay: chymotrypsin chromogenic enzyme assay (S-2356); type: biochemical, bovine; settings: 300-fold molar excess of TAP-1 over protease
T4 construct: purchased Worthington Enzymes, Inc
Description: as §1, §2, §3

Normal Human Plasma [1] = assay: Activated Partial Thromboplastin Time, plasma based clotting assay; type: biochemical
pancreatic elastase = target: T5, pancreatic elastase (Sus scrofa, UniProt P00772); assay: elastase chromogenic enzyme assay (Boc-AlaAla-Pro-Ala-pNA); type: biochemical; settings: 300-fold molar excess of TAP-1 over protease
T5 construct: purchased Worthington Enzymes, Inc
T5 sequence (P00772 27-266): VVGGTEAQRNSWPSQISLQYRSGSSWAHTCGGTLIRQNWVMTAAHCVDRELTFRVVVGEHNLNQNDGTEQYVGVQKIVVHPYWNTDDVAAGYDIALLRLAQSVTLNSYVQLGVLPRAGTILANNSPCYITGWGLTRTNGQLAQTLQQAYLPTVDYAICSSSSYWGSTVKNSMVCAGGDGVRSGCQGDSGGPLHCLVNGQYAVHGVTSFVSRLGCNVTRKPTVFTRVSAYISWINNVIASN
Description: as §1, §2, §3

Factor VIIa = Factor VIIa (Homo sapiens, UniProt P08709); assay: Factor VIIa assay (release of 3H-activation peptide from human Factor X); type: biochemical; settings: 300-fold molar excess of TAP-1 over protease
Sequence of Factor VIIa (P08709 213-466 limits assumed): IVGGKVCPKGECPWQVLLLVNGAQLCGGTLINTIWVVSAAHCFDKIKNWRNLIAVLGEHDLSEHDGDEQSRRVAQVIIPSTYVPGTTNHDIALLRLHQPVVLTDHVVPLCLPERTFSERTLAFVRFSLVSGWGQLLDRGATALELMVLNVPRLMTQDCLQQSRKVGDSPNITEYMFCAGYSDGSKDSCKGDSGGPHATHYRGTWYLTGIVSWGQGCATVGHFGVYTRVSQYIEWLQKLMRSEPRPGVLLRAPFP
Sequence of Factor VIIa (P08709 61-212 partner limits assumed): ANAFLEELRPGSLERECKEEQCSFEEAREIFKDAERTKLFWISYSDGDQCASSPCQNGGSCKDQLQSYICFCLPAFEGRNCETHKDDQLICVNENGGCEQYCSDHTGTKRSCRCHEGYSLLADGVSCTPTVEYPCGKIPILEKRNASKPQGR
Sequence of Factor VIIa (P13726 33-295 partner): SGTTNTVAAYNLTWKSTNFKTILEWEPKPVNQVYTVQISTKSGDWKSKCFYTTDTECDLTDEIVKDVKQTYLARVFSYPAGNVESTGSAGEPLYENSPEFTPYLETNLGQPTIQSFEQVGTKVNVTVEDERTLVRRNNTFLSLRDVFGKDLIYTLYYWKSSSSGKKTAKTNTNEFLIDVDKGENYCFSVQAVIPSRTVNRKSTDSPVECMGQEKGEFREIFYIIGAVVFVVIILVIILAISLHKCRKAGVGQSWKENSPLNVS
Description: as §4, with “Factor VIIa was assayed by measuring the release of the ^3 H-activation peptide from human Factor X. For kinetic analyses, assays were carried for up to 10 min. followed by estimation of the initial rate where less than 5% of the added substrate was utilized.” left out
as §3

plasmin = target: T6, plasmin (Homo sapiens, UniProt P00747); assay: plasmin chromogenic enzyme assay (Spectrozyme PL); type: biochemical; settings: 300-fold molar excess of TAP-1 over protease
T6 construct: Human plasmin, urokinase, and bovine thrombin were from Calbiochem; purchased Calbiochem
T6 sequence (P00747 581-810 limits assumed): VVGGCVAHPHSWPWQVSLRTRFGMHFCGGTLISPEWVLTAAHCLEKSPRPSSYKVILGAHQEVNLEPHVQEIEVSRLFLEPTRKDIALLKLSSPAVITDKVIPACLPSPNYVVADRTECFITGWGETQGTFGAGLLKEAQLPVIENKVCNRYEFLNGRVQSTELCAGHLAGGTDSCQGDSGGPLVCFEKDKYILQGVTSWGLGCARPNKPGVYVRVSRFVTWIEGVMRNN
T6 sequence (P00747 97-580 partner limits assumed): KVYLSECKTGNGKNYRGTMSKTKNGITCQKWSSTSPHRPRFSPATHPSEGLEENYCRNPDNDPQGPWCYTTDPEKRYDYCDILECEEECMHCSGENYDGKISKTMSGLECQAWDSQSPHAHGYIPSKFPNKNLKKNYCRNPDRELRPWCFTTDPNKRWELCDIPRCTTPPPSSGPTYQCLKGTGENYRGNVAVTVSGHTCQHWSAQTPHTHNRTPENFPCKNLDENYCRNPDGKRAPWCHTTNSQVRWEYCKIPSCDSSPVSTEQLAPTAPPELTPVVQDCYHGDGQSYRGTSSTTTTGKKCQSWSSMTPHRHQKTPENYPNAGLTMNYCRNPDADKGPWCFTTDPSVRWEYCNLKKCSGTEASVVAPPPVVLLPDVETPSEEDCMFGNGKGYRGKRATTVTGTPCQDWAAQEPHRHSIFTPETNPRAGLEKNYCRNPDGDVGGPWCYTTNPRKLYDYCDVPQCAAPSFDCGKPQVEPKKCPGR
Description: as §1, §2, §3

trypsin = target: T7, trypsin (Bos taurus, UniProt P00760); assay: trypsin chromogenic enzyme assay; type: biochemical, bovine; settings: 300-fold molar excess of TAP-1 over protease
T7 construct: purchased Worthington Enzymes, Inc
T7 sequence (P00760 24-246): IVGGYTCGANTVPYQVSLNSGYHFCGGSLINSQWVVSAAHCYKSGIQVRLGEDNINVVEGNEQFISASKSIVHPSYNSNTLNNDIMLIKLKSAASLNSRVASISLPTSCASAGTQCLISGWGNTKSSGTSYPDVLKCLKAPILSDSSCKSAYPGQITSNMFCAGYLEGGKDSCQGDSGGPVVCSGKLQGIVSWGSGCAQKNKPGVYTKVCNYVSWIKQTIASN
Description: as §1, §2, §3

Normal Human Plasma [2] = assay: Prothrombin Time, plasma based clotting assay; type: biochemical
Normal Human Plasma [3] = assay: Modified Stypven Time, plasma based clotting assay; type: biochemical
Plasma kallikrein = target: T8, Plasma kallikrein (Homo sapiens, UniProt P03952); assay: kallikrein chromogenic enzyme assay (Spectrozyme Pkal); type: biochemical; settings: 300-fold molar excess of TAP-1 over protease
T8 construct: purchased Sigma
T8 sequence (P03952 391-638 limits assumed, species assumed): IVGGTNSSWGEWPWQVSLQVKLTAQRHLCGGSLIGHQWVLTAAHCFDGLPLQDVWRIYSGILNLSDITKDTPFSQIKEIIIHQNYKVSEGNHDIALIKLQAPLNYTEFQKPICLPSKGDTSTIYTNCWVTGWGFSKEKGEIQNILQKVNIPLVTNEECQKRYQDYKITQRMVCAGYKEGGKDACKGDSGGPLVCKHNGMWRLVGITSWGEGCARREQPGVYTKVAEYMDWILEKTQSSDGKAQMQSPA
T8 sequence (P03952 20-390 partner limits assumed, species assumed): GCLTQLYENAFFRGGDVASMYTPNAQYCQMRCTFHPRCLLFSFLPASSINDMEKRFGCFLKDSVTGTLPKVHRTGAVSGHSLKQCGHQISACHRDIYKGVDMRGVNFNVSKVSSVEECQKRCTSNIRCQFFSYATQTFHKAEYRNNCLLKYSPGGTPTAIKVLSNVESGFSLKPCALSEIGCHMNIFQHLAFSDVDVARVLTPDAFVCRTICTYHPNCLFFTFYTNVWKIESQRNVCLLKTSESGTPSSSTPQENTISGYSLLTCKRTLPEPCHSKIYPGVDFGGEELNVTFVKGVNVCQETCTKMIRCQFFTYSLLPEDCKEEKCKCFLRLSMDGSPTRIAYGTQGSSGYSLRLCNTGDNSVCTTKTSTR
Description: as §1, §2, §3

prothrombin time = prothrombin time in infused rabbits; type: in vivo, rabbit; settings: i.v. infusions of 7, 37 and 64 μg/kg/min
[4] = test system: thromboplastin-induced clot formation; assay: in vivo model of thromboplastin-induced clot formation (jugular vein); set-up: species or system rabbit; settings: rabbits, untreated 29.2±3.4%
Description: An in vivo model of thromboplastin-induced clot formation similar to Van Ryn-McKenna, et al., (1989) Thrombosis and Haemostasis 61:7-9 was used to determine the efficacy of the Factor Xa inhibitor recombinant TAP-1. Rabbits were pretreated with an infusion of recombinant TAP-1 for 60 minutes, at which time a segment of the jugular vein was isolated and occluded. Thromboplastin and whole blood withdrawn from the carotid artery were injected into the segment in order to induce clot formation. The jugular vein remained occluded for 30 minutes before the clot was removed and quantitated.

[5] = test system: activated partial thromboplastin time; assay: activated partial thromboplastin time in infused rabbits; type: in vivo, rabbit; settings: i.v. infusions of 7, 37 and 64 μg/kg/min
[6] = 28.9 pMol TAP-1, Normal Human Plasma
[7] = 57.8 pMol TAP-1, Normal Human Plasma
[8] = 115 pMol TAP-1, Normal Human Plasma

Sequence of S. aureus V8 protease (P0C1U8 69-336): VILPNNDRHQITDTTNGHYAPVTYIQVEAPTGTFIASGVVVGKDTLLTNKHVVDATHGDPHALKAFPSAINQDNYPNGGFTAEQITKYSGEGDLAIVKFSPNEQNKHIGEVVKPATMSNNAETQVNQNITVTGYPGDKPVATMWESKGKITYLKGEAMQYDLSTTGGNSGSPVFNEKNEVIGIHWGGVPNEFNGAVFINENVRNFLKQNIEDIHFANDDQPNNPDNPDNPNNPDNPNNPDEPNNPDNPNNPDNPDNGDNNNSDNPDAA

TAP-1: 60 amino acid Factor Xa inhibitor protein purified from Ornithodoros moubata tick extracts (YNRLCIKPRDWIDECDSNEGGERAYFRNGKGGCDSFWICPEDHTGADYYSSYRDCFNACI; UniProt P17726 1-60, looked up)
inhibition of S. aureus V8 protease (S. aureus V8 protease): no inhibition
effect of Ca++ on the ability to inhibit Factor Xa (human Factor Xa; inclusion of 1-5 mM Ca++): no effect
Ki (human Factor Xa): 0.58 nM
inhibition of thrombin (thrombin): no inhibition
inhibition of urokinase (urokinase): no inhibition
inhibition of chymotrypsin (chymotrypsin): no inhibition
Clotting Time, Activated Partial Thromboplastin Time (Normal Human Plasma [1]; [6]): 45.2 s
Clotting Time, Activated Partial Thromboplastin Time (Normal Human Plasma [1]; [7]): 57.7 s
Clotting Time, Activated Partial Thromboplastin Time (Normal Human Plasma [1]; [8]): 92.2 s
inhibition of elastase (pancreatic elastase): no inhibition
inhibition of Factor VIIa (Factor VIIa): no inhibition
inhibition of plasmin (plasmin): no inhibition
inhibition of trypsin (trypsin): no inhibition
Clotting Time, Prothrombin Time (Normal Human Plasma [2]; 1.15 pMol TAP-1, Normal Human Plasma): 15.1 s
Clotting Time, Prothrombin Time (Normal Human Plasma [2]; [6]): 28.9 s
Clotting Time, Prothrombin Time (Normal Human Plasma [2]; [7]): 31.2 s
Clotting Time, Prothrombin Time (Normal Human Plasma [2]; [8]): 48.7 s
Clotting Time, Modified Stypven Time (Normal Human Plasma [3]; [6]): 17.7 s
Clotting Time, Modified Stypven Time (Normal Human Plasma [3]; [7]): 31.2 s
Clotting Time, Modified Stypven Time (Normal Human Plasma [3]; [8]): 65.1 s
inhibition of kallikrein (Plasma kallikrein): no inhibition

recombinant TAP-1: TAP-1 expressed from a synthetic gene in S. cerevisiae and purified from broth (YNRLCIKPRDWIDECDSNEGGERAYFRNGKGGCDSFWICPEDHTGADYYSSYRDCFNACI; UniProt P17726 1-60, looked up)
effect on prothrombin time (prothrombin time): did not significantly increase
Clot formation (normalized clot value) ([4]; i.v. infusion 7 μg/kg/min for 60 minutes): 27.0±7.5%
Clot formation (normalized clot value) ([4]; i.v. infusion 37 μg/kg/min for 60 minutes): 7.9±2.0%
Clot formation (normalized clot value) ([4]; i.v. infusion 64 μg/kg/min for 60 minutes): 1.9±1.0%
Ki (human Factor Xa): 0.2 nM
effect on activated partial thromboplastin time [5]: did not significantly increase
